# Data as given in patent publication US20150073033A1, “BIOMARKERS FOR CANCER CHARACTERIZATION AND TREATMENT” (Board of Regents, The University of Texas System, priority 2011, published 2015).
# “Also recorded” adds a separate entry of the source. Read-outs that look alike come from different tables or passages of the source.
# How the values were obtained:
# PIN1-PKM2 binding = conditions: U0126 20 μM 30 min before EGF 30 min
# Protocol: Immunoprecipitation and immunoblotting analyses were performed with the indicated antibodies. a: His-PIN1 immobilized on nickel agarose beads was incubated with lysate of U87/EGFR cells treated with or without U0126 (20 μM) for 30 min before EGF (100 ng/mL) stimulation for 30 min. b: U87/EGFR cells transiently expressing WT FLAG-PKM2 or FLAG-PKM2 S37A were treated with or without EGF (100 ng/mL) for 30 min. […] Data represent the mean±SD of three independent experiments. g: PIN1^−/− cells were reconstituted to express the indicated PIN1 proteins (left panel). The total cell lysates and nuclear fractions were prepared from the indicated cells treated with or without EGF (100 ng/mL) for 6 h (right panel). h: Total cell lysates and nuclear fractions of PIN1^−/− cells or PIN^−/− cells expressing FLAG-PKM2 S37D were prepared.
# (§1) Extraction of proteins with a modified buffer from cultured cells was followed by immunoprecipitation and immunoblotting with corresponding antibodies, as described previously (Lu et al., 1998).
# U87 cells = conditions: no-serum DMEM, U0126 20 μM 30 min before PDGF-AA 50 ng/mL 20 h
# Protocol: (§2) Nuclear PCNA. Immunoblotting analyses were performed with the indicated antibodies. b: U87 cells were cultured in no-serum DMEM and treated with or without U0126 (20 μM) for 30 min before PDGF-AA (50 ng/mL) for 20 h. The media were collected for analysis of glucose consumption (left panel) or lactate production (right panel). Data represent the mean±SD of three independent experiments.
# Cells were seeded in culture dishes, and the medium was changed after 6 h with no-serum DMEM. Cells were incubated for 12-16 h, and the culture medium was then collected for measurement of glucose and lactate concentrations. Glucose levels were determined using a glucose (GO) assay kit (Sigma). Glucose consumption was the difference in glucose concentration compared with DMEM. Lactate levels were determined using a lactate assay kit (Eton Bioscience, San Diego, Calif.).
# PKM2 S37 = conditions: U87/EGFR cells; U0126 20 μM 30 min before EGF 100 ng/mL 30 min
# Protocol: FIG. 43: ERK2 phosphorylates PKM2 S37. […] Immunofluorescence analyses were performed with an anti-FLAG antibody (f). Nuclei were stained with Hoechst 33342 (blue).
# as §1
# ERK1/2 = assay: EGF-induced ERK1/2 phosphorylation, immunoblotting; type: cell-based, human; conditions: U87/EGFR cells; AG1478 1 μM or U0126 20 μM 30 min before EGF 6 h
# Protocol: (§3) Immunofluorescence analyses of endogenous PKM2 or transiently expressed FLAG-PKM1 were performed with the indicated antibodies. […] Immunoblotting analyses were performed with the indicated antibodies. Nuclear PCNA was used as controls for immunoblotting analyses. c: An equal volume of cytosolic and nuclear fractions were prepared from U87/EGFR cells treated with or without EGF (100 ng/mL) for 6 h. Ten microliters of protein from cytosolic and nuclear fractions were used for immunoblotting analyses with the indicated antibodies. d: Nuclear fractions were prepared from U251 cells pretreated with LY290042 (30 μM), SU6656 (4 μM), SP600125 (25 μM), and U0126 (20 μM) for 30 min before EGF (100 ng/mL) for 6 h. Immunoblotting analyses were performed with the indicated antibodies. Nuclear PCNA and cytoplasmic tubulin were used as controls. e: U87/EGFR cells were pretreated with LY290042 (30 μM), SU6656 (4 μM), SP600125 (25 μM), and U0126 (20 μM) for 30 min before EGF (100 ng/mL) for 6 h. Immunoblotting analyses were performed with the indicated antibodies.
# as §1
# PKM2 [1] = conditions: U87 cells; U0126 20 μM 30 min before PDGF-AA 50 ng/mL 6 h
# Protocol: as §2
# PKM2 [2] = assay: EGF-induced nuclear translocation of PKM2 (cell fractionation, immunoblotting, immunofluorescence); type: cell-based, human
# Protocol: Immunoblotting analyses (b, b) were performed with the indicated antibodies. Nuclear PCNA and cytoplasmic tubulin were used as controls. a: The indicated cells were immunostained with an anti-PKM2 antibody.
# Immunoblotting and immunoprecipitation analyses were performed with the indicated antibodies. a: Nuclear fractions were prepared from U87/EGFR cells pretreated with LY290042 (30 μM), SU6656 (4 μM), SP600125 (25 μM), and U0126 (20 μM) for 30 min before EGF (100 ng/mL) for 6 h. Nuclear PCNA and cytoplasmic tubulin were used as controls. b: U87/EGFR cells were pretreated with or without U0126 (20 μM) for 30 min before EGF (100 ng/mL) for 6 h. Immunofluorescence analyses were performed with the indicated antibodies. Nuclei were stained with Hoechst 33342 (blue). c: U251 cells were stably transfected with a vector with or without expressing FLAG-ERK2 K52R (left panel) or transiently transfected with vectors expressing MEK1 Q56P and indicated FLAG-tagged ERK2 proteins (right panel). The cells were treated with or without EGF (100 ng/mL) for 6 h, and the total cell lysates and nuclear fractions were prepared. d: FLAG-PKM2 or FLAG-PKM1 was immunoprecipitated with an anti-FLAG antibody from U87/EGFR cells treated with or without EGF (100 ng/mL) for 30 min. e: Bacterially-purified GST-ERK2 immobilized on glutathione agarose beads was mixed with or without purified His-PKM2. GST pull-down analyses were performed. Ten percent of total His-PKM2 was used as an input. f: U87/EGFR cells transfected with vectors expressing the indicated FLAG-tagged ERK proteins were treated with or without EGF (100 ng/mL) for 30 min. g: U87/EGFR cells expressing the indicated FLAG-PKM2 proteins were treated with or without EGF (100 ng/mL) for 30 min.
# as §3
# Cytosolic and nuclear fractions were prepared. Immunoblotting analyses were performed with the indicated antibodies. b: U87/EGFR cells with depleted endogenous PKM2 and reconstituted expression of RNAi-resistant WT rPKM2 or rPKM2 S37A were treated with or without EGF (100 ng/mL) for 6 h. Total cell lysates (left panel) and nuclear fractions (right panel) were prepared.
# PKCα = target: T1, PKCα (Homo sapiens, UniProt P17252); assay: TPA-induced, PKC kinase activity-dependent degradation of PKCα; type: cell-based; conditions: U87/EGFR cells; Go6976 2 μM 30 min before TPA 8 h
# T1 construct: endogenous in cells; host or cells: U87/EGFR
# Protocol: (§4) FIG. 63: PKC, NF-κB, PI3-K, and CK2 are inhibited by their inhibitors. A, B: U87/EGFR cells were treated with Bis-I (2 μM) (A) or Go6976 (2 μM) (B) for 30 min before 12-O-tetradecanoylphorbol-13-acetate (TPA) ([…]) for 8 h. Immunoblotting analyses were performed with the indicated antibodies. C: U87/EGFR cells transiently expressing a luciferase reporter vector containing the IκBα promoter were pretreated with or without NF-κB activation inhibitor II (7 μM) for 30 min before TNFα (10 ng/mL) for 8 h. The relative levels of luciferase activity were normalized to the levels of untreated cells and to the levels of luciferase activity of the Renilla control plasmid. Data represent the mean±standard deviation of three independent experiments. […] Immunoblotting analyses were performed with the indicated antibodies.
# AKT = assay: EGF-induced AKT phosphorylation, immunoblotting; type: cell-based, human; conditions: U87/EGFR cells; LY290042 30 μM or AKT inhibitor 10 μM 30 min before EGF
# Protocol: Immunofluorescence analyses of endogenous PKM2 or transiently expressed FLAG-PKM1 were performed with the indicated antibodies. […] Immunoblotting analyses were performed with the indicated antibodies. […] Immunoblotting analyses were performed with the indicated antibodies. […] Immunoblotting analyses were performed with the indicated antibodies.
# as §4
# PKCε = target: T2, PKCε (Homo sapiens, UniProt Q02156); assay: TPA-induced, PKC kinase activity-dependent degradation of PKCε; type: cell-based; conditions: U87/EGFR cells; Bis-I 2 μM 30 min before TPA 8 h
# T2 construct: endogenous in cells; host or cells: U87/EGFR
# T2 sequence (Q02156 1-737): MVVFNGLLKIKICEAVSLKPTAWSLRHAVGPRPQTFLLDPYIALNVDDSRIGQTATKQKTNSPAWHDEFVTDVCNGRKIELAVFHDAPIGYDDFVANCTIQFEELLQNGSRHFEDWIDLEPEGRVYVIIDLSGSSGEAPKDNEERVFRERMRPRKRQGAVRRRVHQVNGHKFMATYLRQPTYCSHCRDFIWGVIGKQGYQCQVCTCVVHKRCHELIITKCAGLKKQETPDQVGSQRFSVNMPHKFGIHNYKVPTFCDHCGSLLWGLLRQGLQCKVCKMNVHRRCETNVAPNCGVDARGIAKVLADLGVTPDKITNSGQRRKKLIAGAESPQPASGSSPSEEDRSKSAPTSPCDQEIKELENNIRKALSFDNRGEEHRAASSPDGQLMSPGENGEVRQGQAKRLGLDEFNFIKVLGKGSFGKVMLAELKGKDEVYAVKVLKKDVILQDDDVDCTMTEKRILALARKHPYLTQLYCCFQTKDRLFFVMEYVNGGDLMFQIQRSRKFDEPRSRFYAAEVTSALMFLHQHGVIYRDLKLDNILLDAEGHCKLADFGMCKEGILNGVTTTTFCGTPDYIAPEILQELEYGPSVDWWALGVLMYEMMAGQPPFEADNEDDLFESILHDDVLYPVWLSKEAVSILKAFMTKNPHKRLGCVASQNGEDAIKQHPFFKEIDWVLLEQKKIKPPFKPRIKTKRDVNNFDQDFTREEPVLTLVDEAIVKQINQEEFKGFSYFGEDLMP
# Protocol: as §4
# PKM2 expression = assay: EGF-induced PKM2 upregulation, immunoblotting; type: cell-based, human; conditions: U87/EGFR cells; pretreatment before EGF 100 ng/mL 12 h; AG1478 1 μM, cycloheximide 200 μg/mL, Bis-I 2 μM, Go6976 2 μM, NF-κB activation inhibitor II 7 μM, AKT inhibitor 10 μM, TBB 50 μM, U73122 2 μM
# Protocol: FIG. 56: EGFR activation results in upregulation of PKM2 expression. A-D: Immunoblotting analyses were performed with or without the indicated antibodies. A: The indicated cell lines were treated with EGF (100 ng/mL) for 12 h. B: U87 cells were stably transfected with plasmids expressing EGFR or EGFRvIII. […] D: U87/EGFR cells were pretreated with or without cycloheximide (CHX) (200 μg/mL) for 30 min before EGF (100 ng/mL) treatment for 12 h. […] The relative mRNA levels of PKM2 and PKM1 were normalized to the levels of untreated cells and β-actin mRNA. Data represent the mean±SD of three independent experiments.
# FIG. 57: EGF increases PKM2 expression in a PKC- and NF-κB-dependent manner. A-D, H: Immunoblotting analyses were performed with the indicated antibodies. […] ChIP assay was performed with an anti-RelA antibody for immunoprecipitation, followed by PCR with PKM promoter-specific primers. F: An oligonucleotide containing the putative WT or mutated NF-κB binding sequence was labeled using [γ-^32P] ATP and T4 polynucleotide kinase. […] Samples were subjected to 5% polyacrylamide gel electrophoresis, and the dried gel was exposed to x-ray film. […] The relative levels of luciferase activity were normalized to the levels of untreated cells and to the levels of luciferase activity of the Renilla control plasmid. Data represent the mean±standard deviation of three independent experiments.
# FIG. 58: PKCε downstream from PLCγ1, rather than TAK1, activates IKKβ and subsequently increases PKM2 expression. […] B: U87/EGFR cells were treated with TNFα (10 ng/mL) for the indicated time. C: U87/EGFR cells were treated with or without EGF (100 ng/mL) or TNFα (10 ng/mL) for 4 h. […] HIF1α was immunodepleted from the cell lysates by incubation with an anti-HIF1α antibody, which was followed by a ChIP assay with an anti-FLAG antibody for immunoprecipitation of FLAG-RelA and PCR analysis with PKM promoter-specific primers. […] F: 293T cells were transiently transfected with constitutively active (+) or kinase-dead (−) PKC mutants. […] H, I: 293T cells were transiently transfected with the indicated plasmids.
structure (smiles),measurement,setting,value
N#CC(=C(/N)Sc1ccccc1N)/C(C#N)=C(\N)Sc1ccccc1N [U0126],EGF-increased binding of endogenous PIN1 to endogenous PKM2 (co-immunoprecipitation),PIN1-PKM2 binding; U87/EGFR cells,blocked
same,EGF-induced binding of endogenous PKM2 to His-PIN1,PIN1-PKM2 binding; lysate of U87/EGFR cells,abrogated
same,PDGF-induced glucose uptake,U87 cells,blocked
same,PDGF-induced lactate production,U87 cells,blocked
same,EGF-induced PKM2 S37 phosphorylation,PKM2 S37,blocked
same,EGF-induced phosphorylation of ERK1/2,ERK1/2,blocked
same,PDGF-induced nuclear translocation of PKM2,PKM2 [1],blocked
same,EGF-induced nuclear accumulation/translocation of PKM2,PKM2 [2],abrogated; also recorded: blocked
Cn1c2ccccc2c2c3c(c4c5ccccc5n(CCC#N)c4c21)CNC3=O [Go6976],TPA-induced and PKC kinase activity-dependent degradation of PKCα,PKCα,successfully blocked
O=c1cc(N2CCOCC2)oc2c(-c3ccccc3)cccc12 [LY290042],EGF-induced phosphorylation of AKT,AKT,blocked
same,EGF-induced nuclear accumulation/translocation of PKM2,"PKM2 [2]; U87/EGFR (and U251) cells, 30 min pretreatment before EGF 100 ng/mL, LY290042 30 μM, SU6656 4 μM, SP600125 25 μM, U0126 20 μM, AG1478 1 μM, cycloheximide 100 μg/mL",only inhibition of MEK/ERK abrogated
CN(C)CCCn1cc(C2=C(c3c[nH]c4ccccc34)C(=O)NC2=O)c2ccccc21 [Bis-I],TPA-induced and PKC kinase activity-dependent degradation of PKCε,PKCε,successfully blocked
same,EGF-induced PKM2 upregulation/expression,PKM2 expression,largely abrogated; also recorded: blocked
